Experimental data taken from US10336702B2, “Pharmaceutically active compounds” (BERGENBIO ASA, priority 2015, dated 2019).

Columns and labels:
[1] = target: T1, Akt1 (Homo sapiens, UniProt P31749); test: Akt activation assay (PDK1-mediated activation, LANCE Ultra crosstide TR-FRET), Akt1; type: biochemical; settings: read-out: Biological Assay 1 IC50 (nM) Akt1
T1 construct: unspecified tag, removed (detagged) (cleaved yes); purchased SignalChem and Proteros (Akt1); Merck Millipore (PDK1) 14-452 (PDK1); none given for Akt1
T1 sequence (P31749 whole entry): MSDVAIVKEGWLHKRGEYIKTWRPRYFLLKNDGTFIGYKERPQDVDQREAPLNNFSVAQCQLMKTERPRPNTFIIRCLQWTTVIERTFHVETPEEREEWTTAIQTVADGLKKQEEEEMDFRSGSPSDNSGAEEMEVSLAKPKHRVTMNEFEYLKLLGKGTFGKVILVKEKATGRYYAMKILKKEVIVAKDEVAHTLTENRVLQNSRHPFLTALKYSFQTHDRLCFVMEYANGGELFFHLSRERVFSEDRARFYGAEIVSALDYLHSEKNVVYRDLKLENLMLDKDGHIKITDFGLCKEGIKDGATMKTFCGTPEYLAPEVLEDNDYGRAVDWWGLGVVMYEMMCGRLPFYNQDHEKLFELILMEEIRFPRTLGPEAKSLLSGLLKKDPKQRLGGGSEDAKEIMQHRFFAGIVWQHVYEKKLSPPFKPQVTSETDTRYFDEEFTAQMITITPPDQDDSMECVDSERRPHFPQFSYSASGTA
Method in brief: (§1)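 Two-step cascade format: Akt1, Akt2 or Akt3 phosphorylates Ulight-crosstide (100 nM) only after activation by 5 nM PDK1 in presence of PtdIns(3,4,5)P3 vesicles and 100 μM ATP. Product quantified by Eu-antibody TR-FRET after 30 min reaction.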

[2] = target: T2, Akt2 (Homo sapiens, UniProt P31751); test: Akt activation assay (PDK1-mediated activation, LANCE Ultra crosstide TR-FRET), Akt2; type: biochemical; settings: read-out: Biological Assay 1 IC50 (nM) Akt2
T2 construct: unspecified tag, removed (detagged) (cleaved yes); purchased SignalChem and Proteros (Akt2); Merck Millipore (PDK1) 14-452 (PDK1); none given for Akt2
T2 sequence (P31751 whole entry): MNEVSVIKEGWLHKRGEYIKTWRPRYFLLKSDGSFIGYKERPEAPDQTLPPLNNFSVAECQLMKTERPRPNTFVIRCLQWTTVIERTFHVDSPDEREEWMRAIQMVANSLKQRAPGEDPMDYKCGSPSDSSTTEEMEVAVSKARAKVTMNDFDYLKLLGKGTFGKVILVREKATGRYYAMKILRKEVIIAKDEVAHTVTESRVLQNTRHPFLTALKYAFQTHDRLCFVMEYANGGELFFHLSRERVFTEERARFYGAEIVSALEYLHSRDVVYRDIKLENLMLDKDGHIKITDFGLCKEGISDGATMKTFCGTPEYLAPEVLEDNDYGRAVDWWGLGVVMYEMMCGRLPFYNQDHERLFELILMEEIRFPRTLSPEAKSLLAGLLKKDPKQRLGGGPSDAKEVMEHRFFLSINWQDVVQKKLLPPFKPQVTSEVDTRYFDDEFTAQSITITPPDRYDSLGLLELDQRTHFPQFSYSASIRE
Method in brief: as §1

[3] = target: T3, Akt3 (Homo sapiens, UniProt Q9Y243); test: Akt activation assay (PDK1-mediated activation, LANCE Ultra crosstide TR-FRET), Akt3; type: biochemical; settings: read-out: Biological Assay 1 IC50 (nM) Akt3
T3 construct: unspecified tag, removed (detagged) (cleaved yes); purchased SignalChem and Proteros (Akt3); Merck Millipore (PDK1) 14-452 (PDK1); none given for Akt3
T3 sequence (Q9Y243 whole entry): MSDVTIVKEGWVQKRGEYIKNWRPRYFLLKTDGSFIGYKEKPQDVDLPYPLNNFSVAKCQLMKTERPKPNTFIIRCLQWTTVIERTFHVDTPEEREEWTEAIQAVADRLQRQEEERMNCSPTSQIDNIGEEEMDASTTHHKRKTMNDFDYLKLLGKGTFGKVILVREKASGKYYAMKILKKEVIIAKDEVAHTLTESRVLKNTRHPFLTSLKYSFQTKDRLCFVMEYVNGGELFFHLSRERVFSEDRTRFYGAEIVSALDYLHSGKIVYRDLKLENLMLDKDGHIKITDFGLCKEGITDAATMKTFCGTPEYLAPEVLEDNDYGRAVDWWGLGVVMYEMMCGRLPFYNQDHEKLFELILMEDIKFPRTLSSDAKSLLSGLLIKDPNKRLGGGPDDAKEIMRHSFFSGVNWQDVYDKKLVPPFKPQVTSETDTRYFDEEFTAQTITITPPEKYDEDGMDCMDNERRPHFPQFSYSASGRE
Method in brief: as §1

[4] = target: T4, p-Akt1 in LNCaP cells (Homo sapiens, UniProt P31749); test: Phospho-Akt cellular SureFire assay, p-Akt1 in LNCaP cells; type: cell-based; settings: read-out: Biological Assay 2 IC50 (nM) Akt1 LNCaP
T4 construct: SureFire assays to detect cellular p-Akt1, p-Akt2 and p-Akt3 levels in WM115 cells (Akt2/3) and LNCaP cells (Akt1); endogenous in cells; host or cells: LNCaP (ECACC 89110211)
T4 sequence (P31749 whole entry): as the sequence (P31749 whole entry) above
Method in brief: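 Phospho-Thr308 Akt1 detected by AlphaScreen SureFire proximity beads in LNCaP lysates after 15 min compound treatment at 37 °C in 0.1% FBS medium, unstimulated, 0.3% DMSO. Cells plated at 5×10^4/well overnight; IC50 from a 4-parameter equation.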

[5] = target: T5, p-Akt2 in WM115 cells (Homo sapiens, UniProt P31751); test: Phospho-Akt cellular SureFire assay, p-Akt2 in WM115 cells; type: cell-based; settings: insulin stimulated, read-out: Biological Assay 2 IC50 (nM) Akt2 WM115
T5 construct: SureFire assays to detect cellular p-Akt1, p-Akt2 and p-Akt3 levels in WM115 cells (Akt2/3) and LNCaP cells (Akt1); endogenous in cells; host or cells: WM115 (ECACC 91061232), insulin-stimulated
T5 sequence (P31751 whole entry): as the sequence (P31751 whole entry) above
Method in brief: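 Readout is a bead-proximity SureFire assay pairing a pThr308 Akt antibody with a total Akt2 antibody, lysate and beads incubated 2 h plus 2 h at room temperature in the dark. Before lysis, serum-starved WM115 cells received 100 nM insulin (10 min), then test compound (15 min, 0.3% DMSO); IC50 by 4-parameter equation.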

[6] = target: T6, p-Akt3 in WM115 cells (Homo sapiens, UniProt Q9Y243); test: Phospho-Akt cellular SureFire assay, p-Akt3 in WM115 cells; type: cell-based; settings: insulin stimulated, read-out: Biological Assay 2 IC50 (nM) Akt3 WM115
T6 construct: SureFire assays to detect cellular p-Akt1, p-Akt2 and p-Akt3 levels in WM115 cells (Akt2/3) and LNCaP cells (Akt1); endogenous in cells; host or cells: WM115 (ECACC 91061232), insulin-stimulated
T6 sequence (Q9Y243 whole entry): as the sequence (Q9Y243 whole entry) above
Method in brief: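 pThr308-Akt3 in lysates was quantified by bead-proximity SureFire detection, pairing a phospho-specific antibody with a total Akt3 antibody. Before lysis, WM115 cells in 0.1% FBS medium were treated for 15 min at 37 °C with compound (final DMSO 0.3%), following a 10 min stimulation with 100 nM insulin. IC50 was obtained by 4-parameter fitting.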

IC50 [1] | IC50 [2] | IC50 [3] | IC50 [4] | IC50 [5] | IC50 [6] | Compound
> 18000 nM | 370 nM | 110 nM | 5500 nM | 810 nM | 93 nM | COCCN(C)[C@H]1CC[C@H](CC(=O)Nc2cc(-c3ccccc3)c(-c3ccc([C@]4(N)C[C@](C)(O)C4)cc3)cn2)CC1 [Example 128, N-(5-(4-(trans-1-amino-3-hydroxy-3-methylcyclobutyl)phenyl)-4-phenylpyridin-2-yl)-2-(trans-4-((2-methoxyethyl)(methyl)amino)cyclohexyl)acetamide]
10000 nM | 190 nM | 18 nM | > 5700 nM | 1600 nM | 120 nM | CC(=O)N[C@H]1CC[C@H](CC(=O)Nc2cnc(-c3ccc(C4(N)CCC4)cc3)c(-c3ccccc3)c2)CC1 [Example A38, 2-(trans-4-acetamidocyclohexyl)-N-(6-(4-(1-aminocyclobutyl)phenyl)-5-phenylpyridin-3-yl)acetamide]
10000 nM | 350 nM | 16 nM | 9100 nM | 1300 nM | 44 nM | CN(C(=O)C1CC1)[C@H]1CC[C@H](CC(=O)Nc2cc(-c3ccccc3)c(-c3ccc([C@]4(N)C[C@H](F)C4)cc3)nn2)CC1 [Example 71, N-(trans-4-(2-((6-(4-(trans-1-amino-3-fluorocyclobutyl)phenyl)-5-phenylpyridazin-3-yl)amino)-2-oxoethyl)cyclohexyl)-N-methylcyclopropanecarboxamide]
> 19000 nM | 1400 nM | 37 nM | > 30000 nM | 2600 nM | 200 nM | CN(C(=O)C1CCC1)[C@H]1CC[C@H](CC(=O)Nc2cc(-c3ccccc3)c(-c3ccc(C4(N)CC4)cc3)nn2)CC1 [Example A93, N-(trans-4-(2-((6-(4-(1-aminocyclopropyl)phenyl)-5-phenylpyridazin-3-yl)amino)-2-oxoethyl)cyclohexyl)-N-methylcyclobutanecarboxamide]
> 30000 nM | 6100 nM | 75 nM | > 30000 nM | 5300 nM | 240 nM | CN(C(=O)C1CCC1)[C@H]1CC[C@H](CC(=O)Nc2cnc(-c3ccc(C(C)(C)N)cc3)c(-c3ccccc3)c2)CC1 [Example 47, N-(trans-4-(2-((6-(4-(2-aminopropan-2-yl)phenyl)-5-phenylpyridin-3-yl)amino)-2-oxoethyl)cyclohexyl)-N-methylcyclobutanecarboxamide]
> 30000 nM | 500 nM | 33 nM | > 20000 nM | 3400 nM | 220 nM | NC1(c2ccc(-c3cnc(NC(=O)C[C@H]4CC[C@H](N5CCCC5=O)CC4)cc3-c3ccccc3)cc2)CC1 [Example A83, N-(5-(4-(1-aminocyclopropyl)phenyl)-4-phenylpyridin-2-yl)-2-(trans-4-(2-oxopyrrolidin-1-yl)cyclohexyl)acetamide]
> 30000 nM | 2100 nM | 370 nM | > 30000 nM | 11000 nM | 440 nM | CC(C)(N)c1ccc(-c2ncc(NC(=O)C[C@H]3CC[C@H](C(=O)N4CCCC4)CC3)cc2-c2ccccc2)cc1 [Example A47, N-(6-(4-(2-aminopropan-2-yl)phenyl)-5-phenylpyridin-3-yl)-2-(trans-4-(pyrrolidine-1-carbonyl)cyclohexyl)acetamide]
8900 nM | 1500 nM | 190 nM | > 30000 nM | 9100 nM | 670 nM | COC(=O)N(C(C)C)[C@H]1CC[C@H](CC(=O)Nc2cnc(-c3ccc(C4(N)CCC4)cc3)c(-c3ccccc3)c2)CC1 [Example 51, Methyl (trans-4-(2-((6-(4-(1-aminocyclobutyl)phenyl)-5-phenylpyridin-3-yl)amino)-2-oxoethyl)cyclohexyl)(isopropyl)carbamate]
> 13000 nM | 1200 nM | 29 nM | > 30000 nM | 2200 nM | 140 nM | CC(C)C(=O)N(C)[C@H]1CC[C@H](CC(=O)Nc2cc(-c3ccccc3)c(-c3ccc(C4(N)CC4)cc3)nn2)CC1 [Example A92, N-(trans-4-(2-((6-(4-(1-aminocyclopropyl)phenyl)-5-phenylpyridazin-3-yl)amino)-2-oxoethyl)cyclohexyl)-N-methylisobutyramide]
> 30000 nM | 510 nM | 29 nM | > 30000 nM | 3300 nM | 130 nM | CN(C(=O)C1CC1)[C@H]1CC[C@H](CC(=O)Nc2cc(-c3ccccc3)c(-c3ccc(C4(N)CC4)cc3)nn2)CC1 [Example 87, N-(trans-4-(2-((6-(4-(1-aminocyclopropyl)phenyl)-5-phenylpyridazin-3-yl)amino)-2-oxoethyl)cyclohexyl)-N-methylcyclopropanecarboxamide]
> 30000 nM | 3000 nM | 31 nM | > 30000 nM | 3300 nM | 32 nM | CCC(=O)N(C)[C@H]1CC[C@H](CC(=O)Nc2cc(-c3ccccc3)c(-c3ccc([C@]4(N)C[C@](C)(O)C4)c(F)c3)nn2)CC1 [Example 126, N-(trans-4-(2-((6-(4-(trans-1-amino-3-hydroxy-3-methylcyclobutyl)-3-fluorophenyl)-5-phenylpyridazin-3-yl)amino)-2-oxoethyl)cyclohexyl)-N-methylpropionamide]
> 30000 nM | 8900 nM | 130 nM | > 30000 nM | 18000 nM | 150 nM | CC(C)(N)c1ccc(-c2nnc(NC(=O)C[C@H]3CC[C@H](N4CCOC4=O)CC3)cc2-c2ccsc2)cc1 [Example 80, N-(6-(4-(2-aminopropan-2-yl)phenyl)-5-(thiophen-3-yl)pyridazin-3-yl)-2-(trans-4-(2-oxooxazolidin-3-yl)cyclohexyl)acetamide]
> 30000 nM | 14000 nM | 480 nM | > 30000 nM | 12000 nM | 430 nM | COC(=O)N(C)[C@H]1CC[C@H](CC(=O)Nc2cc(-c3ccccn3)c(-c3ccc(C4(N)CCC4)cc3)cn2)CC1 [Example 86, Methyl (trans-4-(2-((5′-(4-(1-aminocyclobutyl)phenyl)-[2,4′-bipyridin]-2′-yl)amino)-2-oxoethyl)cyclohexyl)(methyl)carbamate]
> 30000 nM | 2500 nM | 150 nM | > 30000 nM | 3500 nM | 110 nM | CC(=O)N(C)[C@H]1CC[C@H](CC(=O)Nc2cnc(-c3ccc(C(C)(C)N)cc3)c(-c3ccccc3F)c2)CC1 [Example 9, N-(6-(4-(2-aminopropan-2-yl)phenyl)-5-(2-fluorophenyl)pyridin-3-yl)-2-(trans-4-(N-methylacetamido)cyclohexyl)acetamide]
> 30000 nM | 190 nM | 4 nM | > 30000 nM | 1700 nM | 40 nM | N[C@]1(c2ccc(-c3nnc(NC(=O)C[C@H]4CC[C@H](N5CCCC5=O)CC4)cc3-c3ccccc3)cc2)C[C@@H](F)C1 [Example 74, N-(6-(4-(trans-1-amino-3-fluorocyclobutyl)phenyl)-5-phenylpyridazin-3-yl)-2-(trans-4-(2-oxopyrrolidin-1-yl)cyclohexyl)acetamide]
> 30000 nM | 5500 nM | 99 nM | > 23000 nM | 12000 nM | 400 nM | CN(C(=O)C1CCC1)[C@H]1CC[C@H](CC(=O)Nc2cc(-c3ccccc3)c(-c3ccc(C(C)(C)N)cc3)nn2)CC1 [Example A87, N-(trans-4-(2-((6-(4-(2-aminopropan-2-yl)phenyl)-5-phenylpyridazin-3-yl)amino)-2-oxoethyl)cyclohexyl)-N-methylcyclobutanecarboxamide]
